Columns and labels:
[1] = High fat diet induced obesity (DIO) model; type: in vivo, C57BL/6J male mice; conditions: DIO mice
Procedure: Six week old C57BL/6J male mice were fed with high fat (60%) diet for 14 days. From day 15 onwards animals were treated with compound 9 at a dose of 50 mg/kg body weight or sibutramine (5 mg/kg bw) for 60 days. All the animals were dosed once daily during morning hours up to day 15. From day 16 to end of the study animals were dosed during evening hours.

IL-6 = IL-6 inhibition in hPBMC, LPS challenge, ELISA; type: cell-based, human; conditions: 1 μM, LPS 100 ng/mL for 20 hours
Procedure: (§1) Cells (1×10^6/mL) were challenged with lipopolysaccharides (LPS) at a concentration of (100 ng/mL) for 20 hours. Cell supernatant was analyzed for the presence of IL-6 and IL-1β by antibody directed enzyme-linked immunoassay (R & D Systems, MN, USA).

IL-1β = IL-1β inhibition in hPBMC, LPS challenge, ELISA; type: cell-based, human; conditions: 1 μM, LPS 100 ng/mL for 20 hours
Procedure: as §1

LPS induced NO = experiment: Inhibition of LPS induced NO in mouse peritoneal macrophages; type: cell-based; conditions: compound 1 hour then LPS 10 μg/mL for 48 hrs
Procedure: Mouse peritoneal macrophages were isolated by injecting warm PBS in the peritoneum and cells were tapped out with syringe and stored in a tube. After two washes with PBS, cells were plated in 96 well plates and incubated with compound 9 for 1 hour and then challenged with LPS (10 μg/mL) for 48 hrs. Supernatant was assayed for NO by ELISA kit (R&D Biosystems).

3T3-L1 cells = experiment: PPARγ agonist induced adipocyte differentiation, Oil red O staining; type: cell-based, mouse; conditions: 11 days
Procedure: Adipogenesis is defined as the production of fat laden adipocytes from fibroblast cells. All known PPARγ agonists induce adipogenesis after a long term of treatment. […] Cells were cultured for 11 days and every 48 h fresh drug was given while changing the media.

[2] = Hypoglycemic effect in normal lean mice; type: in vivo, C57BL/6J lean male mice; conditions: 50 mg/kg body weight for 60 days, measured every third day
Procedure: C57BL/6J lean male mice were fed, ad libitum, with laboratory rodent diet and purified water. Animals were treated with compound 9 at a dose of 50 mg/kg body weight for 60 days. Blood glucose was measured with an ACCUCHECK® glucose meter every third day during morning hours. No change in blood glucose levels was observed.

[3] = 50 mg/kg for 60 days, compared to control animals

| SMILES | bodyweight gain ([1]; 5 mg/kg bw once daily for 60 days) | inhibition of IL-6 (IL-6) | inhibition of IL-1β (IL-1β) | NO production (LPS induced NO) | adipocyte differentiation (adipogenesis), compound alone (3T3-L1 cells; 10 μM alone, Oil red O) | adipogenesis induced by PPARγ agonist, combined treatment (3T3-L1 cells; compound 10 μM mixed with rosiglitazone 1 μM) | body weight ([1]; 50 mg/kg body weight once daily for 60 days) | oral glucose tolerance ([1]; 50 mg/kg for 60 days) | free fatty acid levels [1, 3] | triglyceride levels [1, 3] | blood glucose levels [2] |
| --- | --- | --- | --- | --- | --- | --- | --- | --- | --- | --- | --- |
| CC(C)CC(N(C)C)C1(c2ccc(Cl)cc2)CCC1 (centres unmarked) [Sibutramine, reference compound] | Reduced Bodyweight Gain | – | – | – | – | – | – | – | – | – | – |
| CN(C)C(=O)[C@@H](N)Cc1ccc(Oc2ccc(CCC(=O)NO)cc2)cc1.Cl [compound 9, L-2-amino-3-{4-[4-(2-hydroxycarbamoylethyl)-phenoxy]-phenyl}-N,N-dimethylpropionamide hydrochloride] | – | inhibition | inhibition | doses dependently inhibited NO production | not adipogenic | blocks the adipogenesis process induced by PPARγ agonist | lowered body weight | improved | significantly lowered | significantly lowered | No change |
